This is an account of results in ChEMBL document CHEMBL5113390, “Design, synthesis and antitumor evaluation of novel 1H-indole-2-carboxylic acid derivatives targeting 14-3-3η protein” (Eur J Med Chem, 2022).

The target in data set [1] is T1, 14-3-3 protein eta (Homo sapiens) (UniProt Q04917).
T1 sequence (whole entry): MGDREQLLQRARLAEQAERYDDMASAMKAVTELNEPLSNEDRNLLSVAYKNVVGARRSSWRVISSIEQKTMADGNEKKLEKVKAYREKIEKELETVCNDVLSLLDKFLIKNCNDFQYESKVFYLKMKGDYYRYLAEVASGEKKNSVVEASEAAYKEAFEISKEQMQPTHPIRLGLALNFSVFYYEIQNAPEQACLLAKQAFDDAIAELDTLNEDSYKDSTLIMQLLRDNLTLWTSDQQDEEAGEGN
In words: Inhibition of 14-3-3 eta in human Hep3B cells assessed as reduction in AKT phosphorylation at T308 residue measured after 24 hrs by western blot analysis. The data set is classed as cell-based. Particulars: dose 0.5-5 µM, DDE = dose-dependent effect.

The subject of data set [2] is Hep 3B2. In words: Inhibition of cell invasion in human Hep3B cells incubated for 72 hrs by crystal violet staining based transwell assay. The data set is classed as functional. Particulars: dose 1-10 µM, DDE = dose-dependent effect.
The test system of data set [3] is Hep 3B2. Kind of data set: Induction of apoptosis in human Hep3B cells assessed as viable cells at 1 uM measured after 48 hrs by Annexin V/FITC-PI staining based flow cytometry assay (reference value: 90.09%). The data set is classed as functional. Particulars: read-out: Activity.
Data set [4] has as its system Hep 3B2. In words: Induction of apoptosis in human Hep3B cells assessed as early apoptotic cells at 1 uM measured after 48 hrs by Annexin V/FITC-PI staining based flow cytometry assay (reference value: 6.65%). The format is functional.
Data set [5] relates to Hep 3B2. In words: Induction of apoptosis in human Hep3B cells assessed as early apoptotic cells at 2.5 uM measured after 48 hrs by Annexin V/FITC-PI staining based flow cytometry assay (reference value: 6.65%). The format is functional.
The test system of data set [6] is Hep 3B2. Kind of data set: Induction of apoptosis in human Hep3B cells assessed as late apoptotic cells at 2.5 uM measured after 48 hrs by Annexin V/FITC-PI staining based flow cytometry assay (reference value: 3.14%). The format is functional.
The subject of data set [7] is Hep 3B2. In words: Induction of apoptosis in human Hep3B cells assessed as early apoptotic cells at 5 uM measured after 48 hrs by Annexin V/FITC-PI staining based flow cytometry assay (reference value: 6.65%). The data set is classed as functional.
Data set [8] relates to Hep 3B2. In words: Induction of apoptosis in human Hep3B cells assessed as late apoptotic cells at 5 uM measured after 48 hrs by Annexin V/FITC-PI staining based flow cytometry assay (reference value: 3.14%). The format is functional.
The subject of data set [9] is Hep 3B2. In words: Induction of apoptosis in human Hep3B cells assessed as late apoptotic cells at 10 uM measured after 48 hrs by Annexin V/FITC-PI staining based flow cytometry assay (reference value: 3.14%). The format is functional.
For data set [10], the system named is Hep 3B2. Kind of data set: Induction of apoptosis in human Hep3B cells assessed as necrotic cells at 10 uM measured after 48 hrs by Annexin V/FITC-PI staining based flow cytometry assay (reference value: 0.12%). The data set is classed as functional.
The test system of data set [11] is Hep 3B2. In words: Induction of apoptosis in human Hep3B cells assessed as upregulation of cleaved PARP expression at 5 to 20 uM measured after 48 hrs by Western blot analysis. The data set is classed as functional, cell-based. Particulars: dose 5-20 µM.
The test system of data set [12] is Hep 3B2. In words: Induction of apoptosis in human Hep3B cells assessed as upregulation of cleaved caspase-8 expression measured after 48 hrs by Western blot analysis. The format is functional, cell-based. Particulars: dose 5-20 µM, DDE = dose-dependent effect.
Data set [13] relates to Hep 3B2. In words: Induction of cell cycle arrest in human Hep3B cells assessed as accumulation at S phase at 2.5 uM incubated for 48 hrs by flow cytometry analysis (reference value: 30.56 %). The format is functional.
In data set [14] the test system is Hep 3B2. Kind of data set: Induction of cell cycle arrest in human Hep3B cells assessed as accumulation at G2/M phase at 2.5 uM incubated for 48 hrs by flow cytometry analysis (reference value: 8.59 %). The format is functional.
Data set [15] concerns Hep 3B2. In words: Induction of cell cycle arrest in human Hep3B cells assessed as accumulation at G0/G1 phase at 5 uM incubated for 48 hrs by flow cytometry analysis (reference value: 60.85 %). The data set is classed as functional.
Data set [16] relates to Hep 3B2. In words: Induction of cell cycle arrest in human Hep3B cells assessed as accumulation at G2/M phase at 5 uM incubated for 48 hrs by flow cytometry analysis (reference value: 8.59 %). The data set is classed as functional.
The subject of data set [17] is Hep 3B2. Kind of data set: Induction of cell cycle arrest in human Hep3B cells assessed as accumulation at G0/G1 phase at 10 uM incubated for 48 hrs by flow cytometry analysis (reference value: 60.85 %). The format is functional.
The test system of data set [18] is Hep 3B2. In words: Induction of cell cycle arrest in human Hep3B cells assessed as accumulation at S phase at 10 uM incubated for 48 hrs by flow cytometry analysis (reference value: 30.56 %). The data set is classed as functional.
Data set [19] deals with Voltage-gated inwardly rectifying potassium channel KCNH2 (Homo sapiens, UniProt Q12809). In words: Inhibition of hERG by automated patch clamp analysis. The format is toxicity.
The test system of data set [20] is hERG. In words: Selectivity ratio of IC50 for inhibition of hERG by automated patch clamp analysis to IC50 for antiproliferative activity against human SMMC-7721 cells assessed as reduction in cell viability incubated for 72 hrs by MTT assay. The data set is classed as toxicity, cell-based. Particulars: read-out: Ratio IC50.

Active and inactive are the calls of the source. The rule behind the calls is not given here.

Chain of Voltage-gated inwardly rectifying potassium channel KCNH2 (Q12809 whole entry): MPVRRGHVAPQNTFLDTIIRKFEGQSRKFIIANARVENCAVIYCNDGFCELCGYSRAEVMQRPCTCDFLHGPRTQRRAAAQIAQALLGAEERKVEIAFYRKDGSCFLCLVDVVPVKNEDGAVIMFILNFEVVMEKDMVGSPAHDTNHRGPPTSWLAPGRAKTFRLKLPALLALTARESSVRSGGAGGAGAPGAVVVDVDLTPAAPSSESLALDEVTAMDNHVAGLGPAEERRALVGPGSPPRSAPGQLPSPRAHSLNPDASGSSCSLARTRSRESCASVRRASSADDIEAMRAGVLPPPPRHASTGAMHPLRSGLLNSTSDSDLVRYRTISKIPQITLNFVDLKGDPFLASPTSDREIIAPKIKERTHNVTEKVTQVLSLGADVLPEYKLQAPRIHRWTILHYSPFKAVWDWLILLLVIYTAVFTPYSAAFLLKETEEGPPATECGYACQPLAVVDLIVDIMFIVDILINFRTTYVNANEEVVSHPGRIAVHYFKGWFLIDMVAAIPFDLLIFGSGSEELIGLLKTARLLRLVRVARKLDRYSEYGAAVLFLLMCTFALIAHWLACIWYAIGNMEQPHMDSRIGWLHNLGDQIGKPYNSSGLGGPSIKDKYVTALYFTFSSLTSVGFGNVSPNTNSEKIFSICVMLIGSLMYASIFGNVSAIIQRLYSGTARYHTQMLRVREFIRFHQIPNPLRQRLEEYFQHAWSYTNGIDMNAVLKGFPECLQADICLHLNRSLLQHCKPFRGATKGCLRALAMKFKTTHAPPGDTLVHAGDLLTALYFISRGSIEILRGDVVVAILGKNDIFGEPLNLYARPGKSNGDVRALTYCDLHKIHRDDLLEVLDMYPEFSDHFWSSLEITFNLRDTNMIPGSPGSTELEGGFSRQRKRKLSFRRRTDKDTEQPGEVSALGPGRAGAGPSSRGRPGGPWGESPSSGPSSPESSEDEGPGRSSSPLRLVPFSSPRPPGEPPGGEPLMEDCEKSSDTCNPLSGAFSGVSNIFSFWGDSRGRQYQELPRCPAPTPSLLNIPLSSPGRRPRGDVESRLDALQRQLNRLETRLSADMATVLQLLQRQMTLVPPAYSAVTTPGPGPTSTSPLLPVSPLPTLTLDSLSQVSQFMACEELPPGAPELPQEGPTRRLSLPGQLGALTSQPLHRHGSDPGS

As to `COc1cccc(CNCc2c(C(=O)O)n(Cc3ccc(C)cc3)c3cc(C(C)C)ccc23)c1`, the inhibition result in [1] and in [2] was “Dde” each time. In addition, the viability at 1 µM in data set [3] worked out at 88%. The Activity in data set [4] is 6.8%; in [5], 8.74%; in data set [6], 5.02%; in data set [7], 11.22%; in [8] it was 7.79%; in data set [9], 13.52%. Moreover, the Activity is 2.82% in data set [10]; “Dde” in [12]; 36.4% in [13]; 4.47% in [14]; 58.48% in [15]; 3.79% in data set [16]. Also, the figures for the Activity in data set [17] and in data set [18] were 67.7% and 29.71%, respectively. In addition, the result in data set [11] was Active. This compound also registered an IC50 in data set [19] of 34.6 µM. In addition, the selectivity ratio at 72 h in data set [20] was 11.8.
